“Also recorded” adds a separate entry of the source.
How the values were obtained:
[1] = target: T1, human α4β1δ receptors in δ-HEK cells (Homo sapiens, UniProt P18505+P48169); experiment: Whole-cell patch-clamp electrophysiology, concentration-response; assay type: cell-based
T1 construct: expressed in transfected cells; host or cells: δ-HEK (HEK293 Flp-In stably expressing human δ), transiently transfected with α4 and β1 1:1
From the text: (§1) To express recombinant GABAΑ receptors human α1, α2, α3, α5, α6, β2, γ2 (pcDNA3.1/Zeo) and α4, β1 (pUNIV)[26] subunit cDNA were transiently transfected into either δ-HEK or HEK background cells. δ-HEK cells were transfected with α- and β-subunits in a 1:1 ration whereas HEK background cells were transfected with α-, β- and γ-subunits in a 1:1:2 ratio. Human BGT1 (pcDNA5/FRT)[43] was transiently transfected into the δ-HEK cell line. δ-HEK cells transfected for whole-cell patch-clamp recordings were co-transfected with green fluorescent protein (GFP) as well as α- and β-subunits in a 0.5:1:1 ratio (0.8 μg + 1.6 μg + 1.6 μg in a 6 cm dish) in order to identify transfected cells. The transfection was carried out using Polyfect as transfection reagent according to the manufactures protocol expect for using half the recommended volume of Polyfect.

α1,2,6 GABAΑ receptors = experiment: FMP assay, α1,2,6 receptors (summary); assay type: cell-based, human; conditions: range over subtypes; read-out: potency (IC50) at α1,2,6 receptors
Method: (§2) HEK293 cells were maintained in DMEM containing GlutaMAX-I, supplemented with 10% FBS and 1% penicillin-streptomycin and incubated at 37 °C and a humidity of 5% CO2. For expression of δ-containing GABAΑ receptors, a HEK293 Flp-In^ΤΜ cell line stably expressing the human GABAΑ δ-subunits (referred to as δ-HEK) was used and the γ-containing subtypes was expressed in a background HEK293 Flp-In^ΤΜ cell line stably expressing the G-protein coupled peptide receptor NPBWR2 (referred to as HEK background)[26], both positively selected for using 200 μg/mL hygromycin B. α1β2γ2 receptors were stably expressed in a HEK293 cell line maintained as above but with no selection (gift from Marianne L. Jensen, Neurosearch). […]
(§3) The FMP assay was performed as previously described with a few modifications. […] Data was obtained as changes in fluorescence units (∆RFU) by measuring emission at 560 nm caused by excitation at 530 nm. […]
(§4) Data obtained in the FMP assay are given as relative changes in fluorescence units (ΔRFU) by subtracting the average of the baseline fluorescence signal from the peak fluorescence signal after compound addition. […]

[2] = system: α3−5 containing GABAΑ receptors; experiment: FMP assay, α3−5 containing receptors (summary); assay type: cell-based, human; conditions: range over subtypes; read-out: potencies (IC50) at α3−5 containing receptors
Method: as §2, §3, §4

human BGT1 = target: T2, human BGT1 (Homo sapiens, UniProt P48065); experiment: Fluorescence interference control: BGT1-mediated GABA uptake in the FMP assay; assay type: cell-based; conditions: 110 μM GABA uptake by BGT1 in δ-HEK cells; 2027 at 30, 10, 3 μM
T2 construct: expressed in transfected cells; host or cells: δ-HEK cells, transient transfection (pcDNA5/FRT)
T2 sequence (P48065 1-614): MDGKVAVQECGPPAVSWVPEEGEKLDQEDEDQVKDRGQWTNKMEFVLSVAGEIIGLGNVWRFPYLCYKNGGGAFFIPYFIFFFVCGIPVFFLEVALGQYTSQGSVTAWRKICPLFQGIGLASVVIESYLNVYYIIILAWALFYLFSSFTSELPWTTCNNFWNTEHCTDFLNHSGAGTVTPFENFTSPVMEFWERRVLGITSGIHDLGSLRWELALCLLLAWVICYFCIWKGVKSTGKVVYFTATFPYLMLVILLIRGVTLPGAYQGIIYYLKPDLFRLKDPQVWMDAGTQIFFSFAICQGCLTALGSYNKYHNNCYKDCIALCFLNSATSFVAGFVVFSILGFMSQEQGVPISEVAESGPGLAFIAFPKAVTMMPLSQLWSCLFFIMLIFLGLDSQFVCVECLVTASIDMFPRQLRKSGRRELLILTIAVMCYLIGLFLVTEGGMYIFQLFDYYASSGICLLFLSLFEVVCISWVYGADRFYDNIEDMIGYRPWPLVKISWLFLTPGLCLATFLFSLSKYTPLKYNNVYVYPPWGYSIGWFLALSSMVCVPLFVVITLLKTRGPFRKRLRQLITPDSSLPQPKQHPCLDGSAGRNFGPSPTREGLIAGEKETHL
From the text: as §1
assay (perf ormed essentially as previously described in methods section and based on Al-Khawaja et al.).
in d-HEK cells was not decreased/quenched by 2027 in any of the tested concentrations. Data are shown as
means ± SD f rom a representative expe riment perf orme d in triplicate (n=2).
BGT1 expressed in HEK-δ cells

T1 sequence (P48169 36-554): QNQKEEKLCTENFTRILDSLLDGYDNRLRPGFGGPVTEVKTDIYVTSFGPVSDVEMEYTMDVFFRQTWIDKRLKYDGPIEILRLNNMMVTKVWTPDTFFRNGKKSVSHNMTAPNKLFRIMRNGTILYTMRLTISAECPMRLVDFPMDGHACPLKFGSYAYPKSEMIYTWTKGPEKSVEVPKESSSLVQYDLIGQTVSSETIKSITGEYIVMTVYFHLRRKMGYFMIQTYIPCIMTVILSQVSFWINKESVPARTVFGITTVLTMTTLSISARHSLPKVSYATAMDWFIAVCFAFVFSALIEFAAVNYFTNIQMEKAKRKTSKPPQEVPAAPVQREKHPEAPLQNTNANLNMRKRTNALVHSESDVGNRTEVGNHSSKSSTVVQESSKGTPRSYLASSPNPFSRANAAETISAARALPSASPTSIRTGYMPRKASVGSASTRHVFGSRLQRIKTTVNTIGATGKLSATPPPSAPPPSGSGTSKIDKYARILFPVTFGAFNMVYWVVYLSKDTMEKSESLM
T1 sequence (P18505 26-474): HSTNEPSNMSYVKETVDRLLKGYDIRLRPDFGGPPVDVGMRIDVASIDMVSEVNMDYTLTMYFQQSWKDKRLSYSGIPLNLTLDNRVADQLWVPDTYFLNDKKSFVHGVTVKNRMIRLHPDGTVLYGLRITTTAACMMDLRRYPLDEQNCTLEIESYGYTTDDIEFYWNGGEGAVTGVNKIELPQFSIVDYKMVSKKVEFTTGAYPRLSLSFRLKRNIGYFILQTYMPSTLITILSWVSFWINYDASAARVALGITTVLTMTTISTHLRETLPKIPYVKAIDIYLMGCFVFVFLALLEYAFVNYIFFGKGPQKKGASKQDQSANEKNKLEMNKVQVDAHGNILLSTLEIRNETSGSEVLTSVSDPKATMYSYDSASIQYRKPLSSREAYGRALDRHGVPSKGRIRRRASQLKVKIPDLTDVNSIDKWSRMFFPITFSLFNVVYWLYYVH
T1 sequence (O14764 25-452 partner): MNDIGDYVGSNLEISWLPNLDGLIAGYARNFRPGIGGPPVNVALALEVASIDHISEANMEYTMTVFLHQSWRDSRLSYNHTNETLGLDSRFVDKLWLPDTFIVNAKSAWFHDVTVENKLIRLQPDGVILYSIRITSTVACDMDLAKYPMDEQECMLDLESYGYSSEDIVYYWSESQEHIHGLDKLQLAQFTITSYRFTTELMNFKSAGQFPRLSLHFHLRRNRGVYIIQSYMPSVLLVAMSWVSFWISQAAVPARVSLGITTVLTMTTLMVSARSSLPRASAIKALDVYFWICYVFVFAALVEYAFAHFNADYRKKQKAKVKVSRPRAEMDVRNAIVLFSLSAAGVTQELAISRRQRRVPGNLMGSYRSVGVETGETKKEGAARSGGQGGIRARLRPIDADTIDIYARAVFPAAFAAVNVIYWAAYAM

IC50 [1]	potency in patch-clamp relative to FMP assay ([1]; α4β1δ)	IC50 (α1,2,6 GABAΑ receptors)	IC50 [2]	Structure (SMILES)	interference with / quenching of the fluorescence signal (human BGT1)
10.8 nM	9 times	240 to 790 nM	37 to 88 nM	O=C(Nc1cccc(C(=O)N2CCC3(CCNCC3)CC2)c1)c1cccs1 [compound 018, N-(3-(3,9-diazaspiro[5.5]undecane-3-carbonyl)phenyl)thiophene-2-carboxamide]	
				CC(=O)Nc1cccc(C(=O)N2CCC3(CCNCC3)CC2)c1 [compound 2027, N-(3-(3,9-diazaspiro[5.5]undecane-3-carbonyl)phenyl)acetamide]	does not quench; also recorded: do not interfere
